Data on 16 compounds can be found in ChEMBL document CHEMBL1123416, “Imidazo[2,1-b]benzothiazoles. 2. New immunosuppressive agents” (1986).

Holding throughout (assay type): functional
Assay [1] relates to Mus musculus. Kind of assay: Compound was tested for its significant suppressive activity of delayed type hypersensitivity (DTH) with out inhibition of humoral immunity in mice by oral administration at dose of 12.5 mg/kg.
The subject of assay [2] is Mus musculus. The assay is described as follows: Compound was tested for its significant suppressive activity of delayed type hypersensitivity (DTH) with out inhibition of humoral immunity in mice by oral administration at dose of 100 mg/kg.
The test system of assay [3] is Mus musculus. The assay is described as follows: Compound was tested for its significant suppressive activity of delayed type hypersensitivity (DTH) with out inhibition of humoral immunity in mice by oral administration at dose of 200 mg/kg.
Assay [4] deals with Mus musculus. The assay is described as follows: Compound was tested for its significant suppressive activity of delayed type hypersensitivity (DTH) with out inhibition of humoral immunity in mice by oral administration at dose of 25 mg/kg.
The test system of assay [5] is Mus musculus. The assay is described as follows: Significant suppressive activity of delayed type hypersensitivity (DTH) with out inhibition of humoral immunity in mice by oral administration at dose of 50 mg/kg.
The subject of assay [6] is Mus musculus. Kind of assay: Significant suppressive activity of delayed type hypersensitivity (DTH) with out inhibition of humoral immunity in mice by oral administration at dose of 400 mg/kg.
Assay [7] concerns Mus musculus. Kind of assay: Effect on the plaque forming cell formation in BDF1 mice after peroral administration at dose of 100 mg/kg. To be noted: route oral.
For assay [8], the system named is Mus musculus. The assay is described as follows: Effect on the plaque forming cell formation in BDF1 mice after peroral administration at dose of 10 mg/kg. To be noted: route oral.
The test system of assay [9] is Mus musculus. The assay is described as follows: Effect on the plaque forming cell formation in BDF1 mice after peroral administration at dose of 300 mg/kg. To be noted: route oral.
The subject of assay [10] is Mus musculus. The assay is described as follows: Effect on the plaque forming cell formation in BDF1 mice after peroral administration at dose of 30 mg/kg. To be noted: route oral.
Assay [11] relates to Mus musculus. The assay is described as follows: The compound was tested for its significant suppressive activity of delayed type hypersensitivity (DTH) with out inhibition of humoral immunity in mice by oral administration at dose of 400 mg/kg.

Molecules are shown by their SMILES. “And” between values parts separate entries of the source, which are not always exact repeats. Equal entries are not always repeated.

`CN(C)c1cccc(-c2cn3c(n2)sc2ccccc23)c1`: in the assay on Mus musculus [1], the “Increase in ear thickness” value is given as 3.4 1/100mm and the inhibition in vivo – broadly, the change of the read-out against control, counted positive when it falls – at 12.5 mg/kg was 17%. In the assay on Mus musculus [2], the “Increase in ear thickness” value is given as 3.2 1/100mm and the inhibition in vivo at 100 mg/kg was found to be 21%.
Consider `CC(=O)Nc1ccc(-c2cn3c(n2)sc2ccccc23)cc1`, for which, in the assay on Mus musculus [3], the “Increase in ear thickness” value is 3 1/100mm and the inhibition in vivo at 200 mg/kg worked out at 9.1%. In addition, in the assay on Mus musculus [4], the inhibition in vivo at 25 mg/kg was -9.1%. For the same compound, in the assay on Mus musculus [5], the “Increase in ear thickness” value was 3.6 1/100mm.
Turning to `Oc1cccc(-c2cn3c(n2)sc2cc(O)ccc23)c1`, in the assay on Mus musculus [6], the “Increase in ear thickness” value is 2.4 1/100mm and the inhibition in vivo at 400 mg/kg stood at 41.5%. Also, in the assay on Mus musculus [5], the “Increase in ear thickness” value is reported as 2.3 1/100mm and the inhibition in vivo at 50 mg/kg was found to be 43.9%.
For `Brc1ccc(-c2cn3c(n2)sc2ccccc23)cc1` the same measures were 4.9 1/100mm, 5.8%, 5.5 1/100mm and -5.8%.
For `Oc1cccc(-c2cn3c(nc4ccccc43)s2)c1` the same measures were 3.8 1/100mm, 7.3%, 2.3 1/100mm and 43.9%.
Take `Cc1ccc2c(c1)sc1nc(-c3cccc(O)c3)cn12`: in the assay with Mus musculus [6], the “Increase in ear thickness” value is given as 3.8 1/100mm and the inhibition in vivo at 400 mg/kg stood at 5%. Also, in the assay with Mus musculus [5], the “Increase in ear thickness” value is reported as 4.5 1/100mm and the inhibition in vivo at 50 mg/kg was -12.5%.
With `Oc1ccc(-c2cn3c(n2)sc2ccccc23)cc1O`, in the assay on Mus musculus [3], the “Increase in ear thickness” value is on record as 3.1 1/100mm and the inhibition in vivo at 200 mg/kg was 3.1%. For the same compound, in the assay on Mus musculus [4], the “Increase in ear thickness” value is on record as 2.5 1/100mm and the inhibition in vivo at 25 mg/kg was determined as 21.9%.
Regarding `Oc1cccc(-c2cn3c(n2)sc2ccccc23)c1`, the “Increase in ear thickness” value with Mus musculus [3] is 2.8 1/100mm; in the assay on Mus musculus [4] it was 5.3 1/100mm; in the assay on Mus musculus [6] (400 mg/kg) it was 0.9 1/100mm and 1.3 1/100mm; in the assay on Mus musculus [5] (50 mg/kg), 3.4 1/100mm and 3.9 1/100mm; in the assay on Mus musculus [2], 2.4 1/100mm. In addition, the inhibition in vivo at 200 mg/kg in the assay with Mus musculus [3] stood at 54.8%. For the same compound, the inhibition in vivo at 400 mg/kg in the assay with Mus musculus [6] is 79%. In addition, the inhibition in vivo at 50 mg/kg in the assay on Mus musculus [5] was 37.1%. For the same compound, the inhibition in vivo at 100 mg/kg in the assay on Mus musculus [2] is 61.3%. In addition, the PFC/splleen with Mus musculus [7] came out at 0.198; in the assay with Mus musculus [8] it was 0.177; with Mus musculus [9] it was 0.182; in the assay with Mus musculus [10] it was 0.138.
Turning to `O=C(O)c1ccc(-c2cn3c(n2)sc2ccccc23)cc1`, in the assay with Mus musculus [6], the “Increase in ear thickness” value is 2.9 1/100mm and the inhibition in vivo at 400 mg/kg turned out to be 49.1%. For the same compound, in the assay with Mus musculus [5], the “Increase in ear thickness” value is 3.8 1/100mm and the inhibition in vivo at 50 mg/kg turned out to be 33.3%.
Consider `Cc1ccc(-c2cn3c(n2)sc2ccccc23)cc1`, for which, in the assay with Mus musculus [5], the “Increase in ear thickness” value was 5.8 1/100mm and the inhibition in vivo at 50 mg/kg was -11.5%. In the assay with Mus musculus [11], the “Increase in ear thickness” value was 5.3 1/100mm and the inhibition in vivo at 400 mg/kg is -1.9%.
With `COc1ccc(-c2cn3c(n2)sc2ccccc23)cc1`, in the assay on Mus musculus [6], the “Increase in ear thickness” value was 4.6 1/100mm and the inhibition in vivo at 400 mg/kg was found to be 11.5%. Further, in the assay with Mus musculus [5], the “Increase in ear thickness” value was 5.3 1/100mm and the inhibition in vivo at 50 mg/kg was -1.9%.
In the same order, the values of `Oc1cccc(-c2cn3c(n2)oc2ccccc23)c1` are 2.9 1/100mm, 9.4%, 2.6 1/100mm and 18.8%.
As for `Cc1ccc(-c2cn3c(n2)sc2ccccc23)cc1[S+](C)[O-]` (stereo not drawn), in the assay on Mus musculus [3], the “Increase in ear thickness” value is 1.9 1/100mm and the inhibition in vivo at 200 mg/kg was 53.7%. In the assay on Mus musculus [4], the “Increase in ear thickness” value is reported as 3.9 1/100mm and the inhibition in vivo at 25 mg/kg amounted to 4.9%.
As for `COc1ccc2c(c1)sc1nc(-c3cccc(O)c3)cn12`, in the assay with Mus musculus [6], the “Increase in ear thickness” value is reported as 4.9 1/100mm and the inhibition in vivo at 400 mg/kg is -22.5%. Moreover, in the assay with Mus musculus [5], the “Increase in ear thickness” value is 4.8 1/100mm and the inhibition in vivo at 50 mg/kg is -20%.
As to `Fc1ccc(-c2cn3c(n2)sc2ccccc23)cc1`, in the assay with Mus musculus [6], the “Increase in ear thickness” value is listed as 5.9 1/100mm and the inhibition in vivo at 400 mg/kg was -13.5%. For the same compound, in the assay with Mus musculus [5], the “Increase in ear thickness” value is given as 5 1/100mm and the inhibition in vivo at 50 mg/kg is -3.8%.
Turning to `O=CNc1cccc(-c2cn3c(n2)sc2ccccc23)c1`, in the assay on Mus musculus [3], the “Increase in ear thickness” value was 2.2 1/100mm and the inhibition in vivo at 200 mg/kg came out at 48.8%. For the same compound, in the assay with Mus musculus [4], the “Increase in ear thickness” value is 2.6 1/100mm and the inhibition in vivo at 25 mg/kg came out at 39.5%.
